Values of other authors as cited in patent publication US8188123B2, “(Pyrrolidin-2-yl)phenyl derivatives” (priority 2008, dated 2012).
Read-outs that look alike come from different tables or passages of the source.

Key:
allodynia = conditions: rat CFA model of inflammatory pain
[1] = system: ectopic discharges in A-beta and A-delta fibres; conditions: nerve injury
spontaneous pain = conditions: rat mild thermal injury model
mechanical allodynia [2] = conditions: local administration to the sciatic nerve 4 h after surgery; Brennan model
[3] = system: nerve injured myelinated DRG
mechanical allodynia [4] = conditions: intraperitoneal administration; Chung/von Frey

CCN(c1ccccc1)c1cc(=NC)n(C)c(C)n1.Cl [ZD 7288]
allodynia (allodynia): suppresses allodynia
firing frequency of ectopic discharges [1]: reduced the firing frequency of ectopic discharges in A-beta and A-delta fibres, without causing conduction block
spontaneous pain (spontaneous pain): blocks spontaneous pain
mechanical allodynia (mechanical allodynia [2]): attenuates mechanical allodynia
spontaneous activity [3]: reduces spontaneous activity
mechanical allodynia (mechanical allodynia [4]): dose-dependently reverses mechanical allodynia
